Patent publication US11266616B2, “Compositions and methods for inhibiting kinase activity” (BRANDEIS UNIVERSITY, priority 2016, dated 2022)
Entries after “also recorded” stand apart in the source; their conditions may differ.

Experiments:
HeLa cells = experiment: Cell imaging of synchronized HeLa cells treated with PS48 (Aurora A localization, mitotic progression); format: cell-based, human
Text: FIG. 30 is a schematic showing a summary of a protocol used for cell synchronization experiments described herein to visualize effects of PS48 on TPX2 and Aurora A interaction in vivo.
The physiological importance of the Aurora A-TPX2 interaction was then investigated through experiments using PS48 to disrupt the Aurora A-TPX2 interaction in vivo. As described herein, during the transition to mitosis, Aurora A kinase is known to localize to the centrosomes and the spindle, with levels and activity of Aurora A kinase peaking during this point. TPX2 activates Aurora A kinase and targets Aurora A kinase to the spindle during mitosis. Thus, to observe effects of disruption of the Aurora A-TPX2 interaction on the biological in vivo activities of Aurora A kinase, cells in the experiment needed to be synchronized. The live cell imaging experiments to monitor Aurora A kinase and TPX2 in vivo interaction herein were performed using HeLa cells; however, HEK293 cells may also be used (FIGS. 33-35).
To monitor mitotic progression over time with fine resolution, in addition to staining DNA, phosphorylated histone H3 (“H3_P”) was also stained to monitor levels of H3_P in cells during live cell imaging (FIG. 31). Phosphorylation of Ser10 of histone H3 is considered to be a temporal marker of mitotic progression. […]

Aurora A kinase and TPX2 = molecular target: T1, Aurora A kinase and TPX2 (Homo sapiens, UniProt O14965, T288V); experiment: Kemptide phosphorylation by dephosphorylated Aurora A kinase and TPX2 with increasing PS48 (TPX2 competition); format: biochemical; details: 1 μM A122-403 T288V, 100 μM TPX2 1-45, 1 mM kemptide; FIGS. 28A-28B
T1 construct: 1 μM A^122-403 T288V, 100 μM TPX2^1-45 and 1 mM kemptide was used
T1 sequence (O14965 122-403 T288V): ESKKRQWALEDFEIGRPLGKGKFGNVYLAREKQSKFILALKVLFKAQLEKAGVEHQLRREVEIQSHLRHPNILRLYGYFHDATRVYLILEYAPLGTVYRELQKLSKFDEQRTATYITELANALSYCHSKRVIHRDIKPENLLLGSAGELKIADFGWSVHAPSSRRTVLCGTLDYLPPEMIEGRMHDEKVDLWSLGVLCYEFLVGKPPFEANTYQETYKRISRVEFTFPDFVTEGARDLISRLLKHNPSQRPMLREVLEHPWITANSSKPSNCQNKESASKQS
Procedure: FIGS. 28A-28B is a set of plots showing PS48 binds to the TPX2 binding site of Aurora A kinase and PS48 competes with TPX2 for binding to Aurora A kinase in vitro. FIG. 28A is a plot showing measurements of phosphorylation of kemptide (a peptide substrate for Aurora A kinase) when incubated with dephosphorylated Aurora A kinase and TPX2 and various increasing amounts of PS48. […] In the assays shown, 1 μM A^122-403 T288V, 100 μM TPX2^1-45 and 1 mM kemptide was used.
Aurora A, either phosphorylated/dephosphorylated wild type or mutant protein, was mixed with either AP ([…]) (SEQ ID NO: 5), Kemptide (LRRASLG) (SEQ ID NO: 6), or Lats2 ([…]) (SEQ ID NO: 7), in the absence or presence of 50 μM TPX2 in kinase buffer (20 mM TrisHCl, 200 mM NaCl, 3% [vol/vol] glycerol, 20 mM MgCl2, 1 mM TCEP, pH 7.50). These substrates comprise the consensus sequence for Aurora A ([R/K/N]—R—X—[S/T]-B where B is any hydrophobic residue with the exception of Pro) (Ferrari et al., 2005, Biochem. J., 390(Pt 1):293-302; Ohashi et al., 2006, Oncogene, 25:7691-7702; Sardon et al., 2010, EMBO Reports, 11:977-984). Peptides were ordered through Genscript. For HPLC-based activity assays the following protocol was used. The reaction was initiated with the addition of 5 mM ATP. […]

O=C(O)/C=C(/CCc1ccc(Cl)cc1)c1ccccc1 [PS48]
localization of Aurora A to the spindle during mitosis (HeLa cells; HeLa cells treated with PS48, FIGS. 36-37): not observed at the spindles
progression of HeLa cells through mitosis (HeLa cells; presence of PS48 vs DMSO, FIG. 38): prolonged
effect of PS48 on kinase activity of Aurora A incubated with TPX2 (Aurora A kinase and TPX2): inhibits kinase activity by competing off TPX2 binding; also recorded: disrupting binding of TPX2 to Aurora A kinase
